Assay results taken from paper PMC6261651, “A functional proteomics platform to reveal the sequence determinants of lysine methyltransferase substrate selectivity” (Science Advances, 2018).
“Also recorded” adds a separate entry of the source. Where no end group is shown, it is not given here. [ ]: non-standard residue; d: D form. Nle = CCCC[C@H](N)C(=O)O

Columns and labels:
Type in all cases: biochemical
SMYD2 [1] = target: T1, SMYD2 (Homo sapiens, UniProt Q9NRG4); experiment: SPA kinetic analysis of SMYD2 methylation of peptide substrates; conditions: 200 nM SMYD2, 50 μM SAM, varied substrate concentration, mean of three independent measurements (Fig. 4D)
T1 construct: SMYD2 (full length) was expressed as a N-terminal glutathione S-transferase (GST) fusion; GST (N); made in house; host or cells: Escherichia coli BL21(DE3)
T1 sequence (Q9NRG4 whole entry, the tested form may be a part): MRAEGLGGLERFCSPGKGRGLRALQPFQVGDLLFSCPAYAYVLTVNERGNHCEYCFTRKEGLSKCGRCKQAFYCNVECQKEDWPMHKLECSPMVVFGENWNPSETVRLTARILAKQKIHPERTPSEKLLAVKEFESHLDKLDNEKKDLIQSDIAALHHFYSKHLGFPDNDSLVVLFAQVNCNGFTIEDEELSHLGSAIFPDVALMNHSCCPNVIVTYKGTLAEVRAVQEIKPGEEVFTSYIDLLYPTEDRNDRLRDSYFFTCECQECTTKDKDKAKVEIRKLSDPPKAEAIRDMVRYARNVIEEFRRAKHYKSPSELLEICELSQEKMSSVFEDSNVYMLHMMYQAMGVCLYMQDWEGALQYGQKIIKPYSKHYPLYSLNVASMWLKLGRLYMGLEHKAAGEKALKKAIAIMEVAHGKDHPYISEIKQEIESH
Description: (§1) Reactions (10 μl) containing 1 μg of KMT, 1 μg of a K-OPL set, and 1 μCi of ^3H-SAM (PerkinElmer) in KMT reaction buffer [50 mM tris (pH 8.8), 5 mM MgCl2, and 4 mM dithiothreitol] were incubated for 1 hour at room temperature. Reactions were stopped by adding trifluoracetic acid to a final concentration of 0.5%, neutralized by diluting with 135 μl of 50 mM NaHCO3, and transferred to streptavidin-coated FlashPlates (PerkinElmer). Plates were incubated for 15 min, sealed, and counted in a MicroBeta2 liquid scintillation counter (PerkinElmer) for 1 min per sample. Initial rate measure and kinetic analysis were performed using the same procedure with 200 nM SMYD2, 50 μM SAM (5:1 cold/hot ratio), and 80 μM substrate (initial rate measurements) or as indicated (kinetic analysis). IC50 measurements were performed using the same conditions with 5 μM PER2 peptide as a substrate.

SMYD2 [2] = target: T1, SMYD2; experiment: In vitro SMYD2 methyltransferase assay with protein substrates (SDS-PAGE, 3H fluorography); conditions: 1 μg of KMT, 1 μg of substrate, 1 μCi 3H-SAM, 1 hour, room temperature; 3H fluorography (Fig. 5A, 5B, fig. S5A)
Description: Reactions (10 μl) containing 1 μg of KMT, 1 μg of the indicated substrates, and 1 μCi of ^3H-SAM (PerkinElmer) in KMT reaction buffer were incubated for 1 hour at room temperature. Reactions were quenched by the addition of SDS loading buffer and resolved by SDS–polyacrylamide gel electrophoresis. Following the detection of total protein by Coomassie staining, gels were treated with EN^3HANCE (PerkinElmer) and dried, and methylated proteins were detected by autoradiography.
Fig. S5. In vitro SMYD2 assays with protein substrates. (A) Coomassie stained SDS-PAGE of recombinant control (HIS-GST), known substrates (p53, MAPKAPK3), and predicted substrates (PRDM11, GDAP1, MAP3K12) in the absence and presence of SMYD2. Reactions were carried out with 1 μg of SMYD2, 1 μg of substrate, and 1 μCi of 3H-SAM. 3H fluorograph shown below after 24 hour exposure at -80 °C (B) Cartoon repre- sentation of ZPK (PDB:
5CEN) showing plus and minus three amino acids from the target lysine (PO) as stick models.
(1 picture or pasted object on this page, not shown here)

SMYD2 [3] = target: T1, SMYD2; experiment: SPA initial rate measurements with peptide substrates, SMYD2; conditions: 200 nM SMYD2, 50 μM SAM (5:1 cold/hot), 80 μM substrate, room temperature, mean of three independent measurements (Fig. 2F), text gives words only
Excerpt: To measure enzyme activity, we developed a scintillation proximity assay (SPA), which quantified the transfer of tritium-labeled methyl groups from the cofactor and methyl donor S-adenosylmethionine (SAM) to each K-OPL set (Fig. 1B). SPAs permit sensitive analysis of enzymatic activity and are advantageous when the reaction product is unknown. This platform enabled us to rapidly determine a KMT’s preference for any amino acid (except cysteine) at any position ± three positions from a target lysine.
as §1

SMYD2 [4] = target: T1, SMYD2; experiment: IC50 measurements of Nle peptide inhibitors of SMYD2 using PER2 as a substrate (SPA); conditions: 200 nM SMYD2, 50 μM SAM, 5 μM PER2 peptide as substrate, mean of three (Fig. 4E), IC50 values not given
Description: as §1

SMYD2 [5] = target: T1, SMYD2; experiment: MALDI-TOF-MS and MS/MS analysis of methylation products, SMYD2; conditions: 200 nM KMT, 80 μM peptide, 50 μM SAM, 1 hour, room temperature; MALDI-TOF-MS (Fig. 3C)
Description: (§2) For MS experiments, 200 nM KMT, 80 μM peptide, and 50 μM SAM were incubated in KMT reaction buffer for 1 hour at room temperature. Reactions were quenched with 0.5% trifluoroacetic acid and analyzed by MS. KMT-reacted samples were deposited on a MALDI target plate (4 μl per spot) and mixed with 1 μl of matrix solution (α-cyano-4-hydroxycinnamic acid in 50% acetonitrile). MALDI-TOF-MS and MS/MS (positive ion mode at 1 kV) spectra were collected using SCIEX TOF/TOF 5800 MALDI MS spectrometer. The peptide fragmentation modeling and peak assignments were done using the Peptide Sequence Fragmentation Modeling tool (https://omics.pnl.gov/software/molecular-weight-calculator).

SET7/9 [6] = target: T2, SET7/9 (Homo sapiens, UniProt Q8WTS6); experiment: SPA initial rate measurements with peptide substrates, SET7/9; conditions: 3H-SAM, 50 μM SAM (5:1 cold/hot), 80 μM substrate, room temperature, mean of three independent measurements (Fig. 2E), text gives words only
T2 construct: purchased New England BioLabs M0223
T2 sequence (Q8WTS6 1-366): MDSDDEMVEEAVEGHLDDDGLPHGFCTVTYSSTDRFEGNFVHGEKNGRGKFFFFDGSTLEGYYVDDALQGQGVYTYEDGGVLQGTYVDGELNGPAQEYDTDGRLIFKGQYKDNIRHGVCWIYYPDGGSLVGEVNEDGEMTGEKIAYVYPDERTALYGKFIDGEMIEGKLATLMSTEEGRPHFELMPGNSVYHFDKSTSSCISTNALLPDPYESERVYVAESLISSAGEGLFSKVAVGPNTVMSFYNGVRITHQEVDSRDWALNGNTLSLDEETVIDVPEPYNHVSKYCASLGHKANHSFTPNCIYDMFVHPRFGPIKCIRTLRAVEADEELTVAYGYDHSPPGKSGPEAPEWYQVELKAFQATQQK

SET7/9 [7] = target: T2, SET7/9; experiment: MALDI-TOF-MS and MS/MS analysis of methylation products, SET7/9; conditions: 200 nM KMT, 80 μM peptide, 50 μM SAM, 1 hour, room temperature; MALDI-TOF-MS (Fig. 3B)
Description: as §2

G9a [8] = target: T3, G9a (Homo sapiens, UniProt Q96KQ7); experiment: MALDI-TOF-MS and MS/MS analysis of methylation products, G9a; conditions: 200 nM KMT, 80 μM peptide, 50 μM SAM, 1 hour, room temperature; MALDI-TOF-MS (Fig. 3A)
T3 construct: G9a (amino acids 913 to 1210) was produced as a 6XHis N-terminal fusion; 6XHis (N); made in house; host or cells: Escherichia coli BL21(DE3)
T3 sequence (Q96KQ7 913-1210): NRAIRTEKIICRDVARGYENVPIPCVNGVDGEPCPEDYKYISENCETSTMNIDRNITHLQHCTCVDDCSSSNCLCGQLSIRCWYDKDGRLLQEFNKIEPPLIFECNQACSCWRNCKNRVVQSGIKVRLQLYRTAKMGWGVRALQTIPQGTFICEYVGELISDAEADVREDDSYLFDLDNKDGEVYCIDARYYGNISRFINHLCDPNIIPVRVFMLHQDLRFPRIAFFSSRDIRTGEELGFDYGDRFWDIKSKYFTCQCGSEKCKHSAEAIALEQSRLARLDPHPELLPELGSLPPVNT
Description: as §2

G9a [9] = target: T3, G9a; experiment: SPA initial rate measurements with peptide substrates, G9a; conditions: 3H-SAM, 50 μM SAM (5:1 cold/hot), 80 μM substrate, room temperature, mean of three independent measurements (Fig. 2D), text gives words only

Substance: DKLKSKR [PER2 derivative peptide with aspartic acid in the P−3 position]
- kinetic model of SMYD2 methylation (SMYD2 [1]): followed a classical MM model

Substance: PRDM11 K89D: PRDM11 mutant predicted to render this SMYD2 substrate deficient
- methylation of recombinant protein substrate by SMYD2 (SMYD2 [2]): reduced compared to the wild-type PRDM11

Substance: PRDM11: recombinant PRDM11 (amino acids 79 to 314)
- methylation of recombinant protein substrate by SMYD2 (SMYD2 [2]): methylated by SMYD2; also recorded: at least as efficiently as the known substrate, p53

Substance: RKDKSKR [PER2 derivative peptide with aspartic acid in the P−1 position]
- rate of methylation by SMYD2 (substrate efficiency) (SMYD2 [3]): equally poor SMYD2 substrates

Substance: RKD[Nle]SKR [Nle derivative of RKDKSKR]
- inhibition of SMYD2 methylation of PER2 (SMYD2 [4]): less effective

Substance: RKLKEKR [PER2 derivative peptide with glutamic acid in the P+1 position]
- rate of methylation by SMYD2 (substrate efficiency) (SMYD2 [3]): equally poor SMYD2 substrates

Substance: RKLKSKR [PER2 K798, peptide corresponding to lysine 798 of PER2; SMYD2 substrate]
- rate of methylation by SMYD2 (substrate efficiency) (SMYD2 [3]): more efficient substrate than peptides corresponding to previously reported SMYD2 substrates p53 K370 and MAPKAPK3 K355
- methylation products with SMYD2 (SMYD2 [5]): addition of a single methyl group

Substance: RRSKRRK [SCN5A K477, optimal SET7/9 substrate predicted by K-OPL]
- rate of methylation by SET7/9 (substrate efficiency) (SET7/9 [6]): methylated at a faster rate than p53 K372
- methylation products with SET7/9 (SET7/9 [7]): addition of a single methyl group

Substance: SHLKSKK [p53 K370, peptide corresponding to previously reported SMYD2 substrate p53 K370, reference compound]
- kinetic model of SMYD2 methylation (SMYD2 [1]): standard Michaelis-Menten (MM) model
- kinetic model of SMYD2 methylation (SMYD2 [1]; listed as p53): classical MM kinetics

Substance: TARKRFK [optimal G9a peptide substrate derived from the K-OPL profile]
- methylation products with G9a (G9a [8]): both monomethyl and dimethyl products
- rate of methylation by G9a (substrate efficiency) (G9a [9]): more efficient substrate than H3K9 or WIZ

Substance: WKLKSKR [optimal K-OPL-derived SMYD2 substrate, not found in any human protein]
- kinetic model of SMYD2 methylation (SMYD2 [1]): consistent with substrate inhibition
- rate of methylation by SMYD2 (substrate efficiency) (SMYD2 [3]): increased the rate of methylation
